Experimental data reported in patent publication US7098218B2, “Steroidal compounds for inhibiting steroid sulphatase” (priority 2001, dated 2006).
Where “and” joins values, the source holds several entries; their conditions need not be identical. Equal values may be shown once.

Experiments:
[1] = target: T1, E2DH Type II (HSD Type II) in MDA-MB231 breast cancer cells (Homo sapiens, UniProt P37059); test: Conversion of oestradiol to oestrone in intact MDA-MB231 cell monolayers (Protocol 7); type: cell-based; conditions: MDA-MB-231, measured at 10 μM, read-out: % Inhibition E2 → E1 ± SD (HSD Type II)
T1 construct: endogenous in cells; host or cells: MDA-MB-231 breast cancer cells
T1 sequence (P37059 1-387): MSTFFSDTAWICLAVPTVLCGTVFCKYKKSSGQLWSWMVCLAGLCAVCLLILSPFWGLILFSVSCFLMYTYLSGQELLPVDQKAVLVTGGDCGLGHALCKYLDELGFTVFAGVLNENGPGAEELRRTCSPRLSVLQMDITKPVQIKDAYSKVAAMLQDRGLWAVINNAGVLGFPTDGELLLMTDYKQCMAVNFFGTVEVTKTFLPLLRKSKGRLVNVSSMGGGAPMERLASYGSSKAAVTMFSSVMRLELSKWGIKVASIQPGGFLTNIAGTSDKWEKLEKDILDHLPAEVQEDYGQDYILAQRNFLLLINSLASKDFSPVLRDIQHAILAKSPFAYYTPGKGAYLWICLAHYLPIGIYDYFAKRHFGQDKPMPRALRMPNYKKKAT
Procedure: (§1) The ability of compounds to inhibit steroid dehydrogenase activity can be assessed using either T47D breast cancer cells in which E2HSD Type I activity is abundant or MDA-MB-231 cells for Type II inhibitor studies. In both cell lines formation of products is linear with respect to time and cell numbers. Details on a suitable Assay Protocol are presented in the Examples section.
(§2) Conversion of oestrone to oestradiol (E1→E2, E2DH Type I) and oestradiol to oestrone (E2→E1, E2DH Type II) was measured in intact cell monolayers of T47D and MDA-MB231 breast cancer cells respectively. Cells were cultured in flasks until they were 80–90% confluent. ^3 H-E1 or ^3H-E2 (6 pmol, ˜90 Ci/mmol) were added to each flask in the absence (control) or presence of various test compounds (10 μM) in 2.5 ml of medium. Substrate was also added to flasks without cells and incubated in parallel (blanks).
(§3) After incubation with T47D cells for 30 min or MDA cells for 3 h at 37° C., 2 ml of the medium was added to test tubes containing ^14C-E2 or ^14C-E1 (˜5000 cpm) and 50 μg E2 or E1 respectively. Steroids were extracted from the aqueous medium with diethyl ether (4 ml). The ether phase was decanted into separate tubes after freezing the aqueous phase in solid carbon dioxide-methanol mixture. The ether was evaporated to dryness under a stream of air at 40° C. The residue was dissolved in a small volume of diethyl ether and applied to TLC plates containing a fluorescent indicator. E1 and E2 were separated by TLC using DCM-Ethyl acetate (4:1 v/v). The position of the product from each incubation flask was marked on the TLC plate after visualisation under UV light. The marked regions were cut out and placed in scintillation vials containing methanol (0.5 ml) to elute the product. The amount of ^3 H-product formed and ^14C-E1 or ^14C-E2 recovered were calculated after scintillation spectrometry. The amount of product formed was corrected for procedural losses and for the number of cells in each flask.

[2] = target: T2, E2DH Type I (HSD Type I) in T47D breast cancer cells (Homo sapiens, UniProt P14061); test: Conversion of oestrone to oestradiol in intact T47D cell monolayers (Protocol 7); type: cell-based; conditions: measured at 10 μM; for inhibition at 10 µM: T47D, read-out: % Inhibition E1 → E2 ± SD (HSD Type I)
T2 construct: T47D breast cancer cells in which E2HSD Type I activity is abundant; endogenous in cells; host or cells: T47D breast cancer cells
T2 sequence (P14061 2-328 limits assumed): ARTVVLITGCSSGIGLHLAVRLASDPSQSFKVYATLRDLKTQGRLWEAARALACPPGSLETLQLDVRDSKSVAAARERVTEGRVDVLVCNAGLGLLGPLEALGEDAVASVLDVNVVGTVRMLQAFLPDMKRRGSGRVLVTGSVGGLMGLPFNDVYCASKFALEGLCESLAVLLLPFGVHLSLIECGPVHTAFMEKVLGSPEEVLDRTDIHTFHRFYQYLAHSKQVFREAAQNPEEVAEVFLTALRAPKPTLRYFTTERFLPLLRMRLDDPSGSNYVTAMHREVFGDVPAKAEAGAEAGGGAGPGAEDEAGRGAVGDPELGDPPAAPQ
Procedure: as §1, §2, §3

STS = target: T3, STS (Homo sapiens, UniProt P08842); test: biochemical; conditions: STS IC50 (nM), inhibition of E1S→E1; Table 1
T3 construct: can be assessed using either intact MCF-7 breast cancer cells or placental microsomes
T3 sequence (P08842 22-583): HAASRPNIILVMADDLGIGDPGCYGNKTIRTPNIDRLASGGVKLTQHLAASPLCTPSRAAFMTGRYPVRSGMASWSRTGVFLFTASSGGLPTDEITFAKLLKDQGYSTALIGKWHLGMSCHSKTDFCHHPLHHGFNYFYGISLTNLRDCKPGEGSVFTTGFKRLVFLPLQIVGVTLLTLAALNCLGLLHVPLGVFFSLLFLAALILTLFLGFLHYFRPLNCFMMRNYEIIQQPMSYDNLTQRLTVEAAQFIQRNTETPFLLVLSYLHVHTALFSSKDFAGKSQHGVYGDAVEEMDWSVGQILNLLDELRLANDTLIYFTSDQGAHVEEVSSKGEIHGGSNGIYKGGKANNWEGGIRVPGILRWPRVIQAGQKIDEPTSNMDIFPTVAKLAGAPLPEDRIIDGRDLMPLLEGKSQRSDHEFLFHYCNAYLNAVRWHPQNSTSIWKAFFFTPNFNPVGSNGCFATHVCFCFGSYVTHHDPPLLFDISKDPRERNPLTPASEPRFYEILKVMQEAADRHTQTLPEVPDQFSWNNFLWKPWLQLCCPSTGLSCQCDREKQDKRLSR

SMILES | inhibition at 10 µM [1] [%] | inhibition at 10 µM [2] [%] | % Inhibition E1 → E2 ± SD (HSD Type I) ([2]; 10 µM) [%] | IC50 (STS)
C[C@]12CCC3c4ccc(O)cc4CCC3C1CC(=O)N(Cc1ccccc1)C2=O (stereo partly drawn) [compound 233] | 35.8 ± 3.88 | 58.8 ± 0.68 | 57.43 ± 1.89 | –
C[C@]12CCC3c4ccc(O)cc4CCC3C1CC(=O)N(Cc1cccnc1)C2=O (stereo partly drawn) [compound 234] | -1.45 ± 11.4 | 25.8 ± 9.27 | – | –
C[C@]12CCC3c4ccc(O)cc4CCC3C1CC(=O)N(CCCCBr)C2=O (stereo partly drawn) [compound 235] | 10.7 ± 0.78 | 16.6 ± 1.46 | – | –
C[C@]12CCC3c4ccc(OS(N)(=O)=O)cc4CCC3C1CC(=O)N(Cc1ccccc1)C2=O (stereo partly drawn) [compound 236] | 5.84 ± 11.8 | 20.4 ± 6.25 | – | 280 nM
C[C@]12CCC3c4ccc(OS(N)(=O)=O)cc4CCC3C1CC(=O)N(Cc1cccnc1)C2=O (stereo partly drawn) [compound 237] | – | -2 | – | –
C=CCN1C(=O)CC2C3CCc4cc(O)ccc4C3CC[C@]2(C)C1=O (stereo partly drawn) [compound 274] | -4.04 ± 0.36 | 36.82 ± 0.36 | – | –
CCN1C(=O)CC2C3CCc4cc(O)ccc4C3CC[C@]2(C)C1=O (stereo partly drawn) [compound 275] | 32.1 ± 1.06 | 42.5 ± 3.02 | – | –
CCCCCCN1C(=O)CC2C3CCc4cc(O)ccc4C3CC[C@]2(C)C1=O (stereo partly drawn) [compound 276] | 8.32 ± 7.5 | 22.7 ± 2.2 | – | –
CCCCN1C(=O)CC2C3CCc4cc(O)ccc4C3CC[C@]2(C)C1=O (stereo partly drawn) [compound 277] | 13.2 ± 9.74 | 18.6 ± 0.89 | – | –
C[C@]12CCC3c4ccc(O)cc4CCC3C1CC(=O)N(CC1CC1)C2=O (stereo partly drawn) [compound 278] | 8.31 ± 2.46 | 24.2 ± 1.71 | – | –
CC(C)(C)c1ccc(CN2C(=O)CC3C4CCc5cc(O)ccc5C4CC[C@]3(C)C2=O)cc1 (stereo partly drawn) [compound 279] | 3.87 ± 4.97 | 16 ± 0.88 | – | –
C=CCN1C(=O)CC2C3CCc4cc(OS(N)(=O)=O)ccc4C3CC[C@]2(C)C1=O (stereo partly drawn) [compound 280] | – | – | – | 75 nM
CCN1C(=O)CC2C3CCc4cc(OS(N)(=O)=O)ccc4C3CC[C@]2(C)C1=O (stereo partly drawn) [compound 281] | 20.4 ± 3.14 | 24.7 ± 2.39 | – | 52 nM and 24 nM and 29 nM
CCCCCCN1C(=O)CC2C3CCc4cc(OS(N)(=O)=O)ccc4C3CC[C@]2(C)C1=O (stereo partly drawn) [compound 282] | – | – | – | 288 nM
CCCCN1C(=O)CC2C3CCc4cc(OS(N)(=O)=O)ccc4C3CC[C@]2(C)C1=O (stereo partly drawn) [compound 283] | – | – | – | 382 nM
CC(C)(C)c1ccc(CN2C(=O)CC3C4CCc5cc(OS(N)(=O)=O)ccc5C4CC[C@]3(C)C2=O)cc1 (stereo partly drawn) [compound 285] | 3.56 ± 4.89 | 22.5 ± 3.72 | – | 23 nM
C[C@]12CCC3c4ccc(OS(N)(=O)=O)cc4CCC3C1CC(=O)N(CCCCBr)C2=O (stereo partly drawn) [compound 286] | -2.98 ± 0.38 | 26 ± 3.23 | – | –
COc1cc2c(cc1O)CCC1C2CC[C@]2(C)C(=O)NC(=O)CC12 (stereo partly drawn) [compound 325] | -20.2 ± 14.8 | 7.78 ± 2.45 | – | –
COc1cc2c(cc1OS(N)(=O)=O)CCC1C2CC[C@]2(C)C(=O)NC(=O)CC12 (stereo partly drawn) [compound 326] | 15 ± 1.22 | 7.5 ± 12.4 | – | 309 nM
